Assay results: paper PMC11272826, “Metabolism of alcohol ethoxylates (AEs) in rat, hamster, and human hepatocytes and liver S9: a pilot study for metabolic stability, metabolic pathway, and metabolites identification in vitro and in silico” (Archives of Toxicology, 2024)

Key:
[1] = Metabolite profiling by LC-MS in buffer (incubation without cells); settings: 120 min
Procedure: (§2) The hepatocytes were thawed and re-suspended in Celsis InVitro KHB medium (pH 7.4). […] The samples were collected and stored at − 20 °C for further analysis.
(§3) The in vitro metabolism of the five individual homologue AEs (i.e. C8EO4, C10EO5, C12EO4, C16EO8, and C18EO3) was analyzed by liquid chromatography–mass spectrometry (LC–MS). The UPLC-Q-Exactive Orbitrap MS system consisted of a Thermo Vanquish Horizon UHPLC with an autosampler, vacuum degasser, photodiode array (PDA) detector (210–500 nm), and column oven coupled to a Q-Exactive Orbitrap Focus mass spectrometer (Thermo Fisher Scientific, Waltham, MA, USA). The analytical column used was a Waters Acquity BEH C8 2.1 × 50 mm with 1.7 particle size (Waters Corp, Milford, MA, USA). The temperature of the column oven was 40 °C, and the injection volume was 4 μl. The aqueous eluent (A) was 0.1% formic acid (B) was acetonitrile. […] The eluent flow rate was 0.5 ml/min and the flow was directed to the MS through a PDA detector. The data acquisition was performed using positive Electrospray Ionization (ESI+) polarity with a capillary voltage of 3000 V. Capillary temperature was 320 °C and auxiliary gas temperature was 500 °C. The mass spectrometer was operated in the data-dependent MS2 mode, which acquires full-scan MS and MS/MS fragment ion data in the same run. Scan was performed with a resolution of 35,000 (full width at half maximum at m/z 200), while an Automated Gain Control target of a million ions, maximum injection time of 100 ms, and a scan range of 100–1000 m/z were used. […] Nitrogen was used as a sheath gas with 50 units, auxiliary gas with 10 units and as a sweep gas with 5 units. Ion chromatograms were extracted from the total ion chromatograms using calculated monoisotopic accurate masses with 5 mDa window. Calibration curves were generated using an external standard. The data were processed with Thermo Xcalibur 4.1.31.9 software.

[2] = Metabolic stability in liver S9 fraction (disappearance, half-life, CLint); settings: for half-life at 10 µM: pooled liver S9, pH 7.4, Half-lives t1/2, Liver S9, 10 μM
Procedure: The metabolic stability assay was performed in a 48-well plate format (duplicate with cofactors and single without cofactors).
Each incubation contained test compound (final concentration of 1 or 10 µM), liver S9 (1.5 mg/ml protein content), Cofactors (1 mM NADPH + 1 mM UDPGA + 0.2 mM PAPS), MgCl2 (2 mM), and potassium phosphate buffer (100 mM at pH 7.4). […] The incubation was carried out at 37 °C for 60 min with and without cofactors. […] The samples were collected and stored at − 20 °C for further analysis.
as §3
(§4) The first-order rate constants k (min^−1) of the metabolism were obtained from the slope of time versus ln (% remaining) plots using Excel software. All time points (log-scale) were used in fitting the rate constant k based on visual inspection of the curves.
(§5) The in vitro half-life (t1/2) of the test compound(s) is defined as: t1/2=ln2/k
(§6) CLint,inc = k*V/(M), where V is the volume of the incubation and M is the number of cells or amount of S9 protein in the incubation.

[3] = system: human hepatocytes; experiment: Metabolic stability in cryopreserved hepatocytes (disappearance, half-life, CLint); settings: human hepatocytes
Procedure: (§7) The metabolic stability assay was performed in a 48-well plate format (duplicate with cells and single without cells).
as §2
(§8) The UPLC-Q-Exactive Orbitrap MS system consisted of a Thermo Vanquish Horizon UHPLC with an autosampler, vacuum degasser, photodiode array (PDA) detector (210–500 nm), and column oven coupled to a Q-Exactive Orbitrap Focus mass spectrometer (Thermo Fisher Scientific, Waltham, MA, USA). The analytical column used was a Waters Acquity BEH C8 2.1 × 50 mm with 1.7 particle size (Waters Corp, Milford, MA, USA). The temperature of the column oven was 40 °C, and the injection volume was 4 μl. The aqueous eluent (A) was 0.1% formic acid (B) was acetonitrile. […] The eluent flow rate was 0.5 ml/min and the flow was directed to the MS through a PDA detector. The data acquisition was performed using positive Electrospray Ionization (ESI+) polarity with a capillary voltage of 3000 V. Capillary temperature was 320 °C and auxiliary gas temperature was 500 °C. The mass spectrometer was operated in the data-dependent MS2 mode, which acquires full-scan MS and MS/MS fragment ion data in the same run. Scan was performed with a resolution of 35,000 (full width at half maximum at m/z 200), while an Automated Gain Control target of a million ions, maximum injection time of 100 ms, and a scan range of 100–1000 m/z were used. […] Nitrogen was used as a sheath gas with 50 units, auxiliary gas with 10 units and as a sweep gas with 5 units. Ion chromatograms were extracted from the total ion chromatograms using calculated monoisotopic accurate masses with 5 mDa window. Calibration curves were generated using an external standard. The data were processed with Thermo Xcalibur 4.1.31.9 software.
as §4, §5, §6

[4] = as above; settings: human, pooled cryopreserved hepatocytes, pH 7.4
Procedure: as §7, §2, §8, §4, §5, §6

[5] = Metabolic stability in liver S9 fraction (disappearance, half-life, CLint); settings: for half-life at 1 µM / half-life at 10 µM / microsomal CLint at 1 µM / microsomal CLint at 10 µM: pooled liver S9, pH 7.4; for Relative LC/MS peak area: with cofactors, 60 min
Procedure: (§1) Calibration curves were generated using an external standard.
Intrinsic in vitro clearance was calculated as follows: […]

[6] = system: rat hepatocytes; experiment: Metabolite profiling by LC-MS in hepatocytes; settings: for Percentage of the total peak area, Hepatocytes, Rat: 120 min
Procedure: as §2, §3

[7] = system: rat hepatocytes; experiment: Metabolic stability in cryopreserved hepatocytes (disappearance, half-life, CLint); settings: rat hepatocytes
Procedure: as §7, §2, §8, §4, §5, §6

[8] = as above; settings: Sprague Dawley, rat, pooled cryopreserved hepatocytes, pH 7.4
Procedure: as §7, §2, §8, §4, §5, §6

[9] = system: hamster hepatocytes; experiment: Metabolite profiling by LC-MS in hepatocytes; settings: for Percentage of the total peak area, Hepatocytes, Hamster: 120 min
Procedure: as §2, §3

[10] = Metabolite profiling by LC-MS in liver S9
Text: as §1

[11] = system: human hepatocytes; experiment: Metabolite profiling by LC-MS in hepatocytes; settings: for Number of metabolites detected: human hepatocytes; for Percentage of the total peak area, Hepatocytes, Human: 120 min
Procedure: as §2, §3

[12] = Metabolic stability in cryopreserved hepatocytes (disappearance, half-life, CLint); settings: Syrian, hamster, pooled cryopreserved hepatocytes, pH 7.4
Procedure: as §7, §2, §8, §4, §5, §6

[13] = system: hamster hepatocytes; experiment: as above; settings: hamster hepatocytes
Procedure: as §7, §2, §8, §4, §5, §6

[14] = metabolite profile of C10EO5, 10 µM incubation
[15] = metabolite profile of C10EO5, 10 µM incubation, 60 min
[16] = metabolite profile of C12EO4, 10 µM incubation
[17] = metabolite profile of C12EO4, 10 µM incubation, 60 min

Which results are given for `CCCCCCCCCCOCCOCCOCCOCCOCCO` [C10EO5]?
Percentage of the total peak area, Hepatocytes, Buffer ([1]; metabolite profile of C10EO5, 10 µM incubation without cells): 98.7%; Initial concentration remaining after 60 min incubation ([2]; human liver S9, range over 1 and 10 µM): 0.01–4%; microsomal CLint at 1 µM ([2]; human, pooled liver S9, pH 7.4): 234 µL/min/mg; microsomal CLint at 10 µM ([2]; human, pooled liver S9, pH 7.4): 170 µL/min/mg; half-life at 1 µM ([2]; human, pooled liver S9, pH 7.4, Half-lives t1/2, Liver S9, 1 μM): 2 min; half-life at 10 µM ([2]; human): 2.7 min; Initial concentration remaining after 120 min incubation ([3]; range over 1 and 10 µM): 0.2–4%; half-life at 1 µM [4]: 4 min; half-life at 10 µM [4]: 4.9 min; half-life at 1 µM ([5]; Sprague-Dawley, rat): 8.3 min; half-life at 10 µM ([5]; Sprague-Dawley, rat): 12 min; microsomal CLint at 1 µM ([5]; Sprague-Dawley, rat): 55.7 µL/min/mg; microsomal CLint at 10 µM ([5]; Sprague-Dawley, rat): 38 µL/min/mg; half-life at 1 µM ([5]; Syrian, hamster): 8.1 min; half-life at 10 µM ([5]; Syrian, hamster): 12 min; microsomal CLint at 1 µM ([5]; Syrian, hamster): 57.3 µL/min/mg; microsomal CLint at 10 µM ([5]; Syrian, hamster): 40 µL/min/mg; Initial concentration remaining after 60 min incubation ([5]; hamster liver S9, range over 1 and 10 µM): 0.01–4%; Initial concentration remaining after 60 min incubation ([5]; rat liver S9, range over 1 and 10 µM): 0.01–4%; Percentage of the total peak area, Hepatocytes, Rat [6, 14]: 0.8%; Number of metabolites detected ([6]; rat hepatocytes): 28; Initial concentration remaining after 120 min incubation ([7]; range over 1 and 10 µM): 0.2–4%; half-life at 1 µM [8]: 2.9 min; half-life at 10 µM [8]: 1.9 min; Number of metabolites detected ([9]; hamster hepatocytes): 28; Percentage of the total peak area, Hepatocytes, Hamster [9, 14]: 0.7%; Number of metabolites detected ([10]; human liver S9): 26; Percentage of the total peak area, Liver S9 without cofactors, Hamster [10, 15]: 97.9%; Percentage of the total peak area, Liver S9 without cofactors, Human [10, 15]: 97.7%; Percentage of the total peak area, Liver S9 without cofactors, Rat [10, 15]: 98.2%; Number of metabolites detected [11]: 28; Percentage of the total peak area, Hepatocytes, Human [11, 14]: 0.3%; half-life at 1 µM [12]: 4.5 min; half-life at 10 µM [12]: 10.6 min; Initial concentration remaining after 120 min incubation ([13]; range over 1 and 10 µM): 0.2–4%

For `CCCCCCCCCCCCOCCOCCOCCOCCO` [C12EO4], which “Percentage of the total peak area, Hepatocytes, Buffer” value ([1]; metabolite profile of C12EO4, 10 µM incubation without cells) is on record?
Its value is 79.1%.

What about the “Relative LC/MS peak area” value ([2]; human liver S9, 10 μM, with cofactors, 60 min) of the same molecule?
The value was 3%.

And the microsomal CLint at 10 µM ([2]; human, pooled liver S9, pH 7.4)?
The microsomal CLint at 10 µM was 51.2 µL/min/mg.

And the half-life at 10 µM ([2]; human)?
Its half-life at 10 µM is 9 min.

And the “Relative LC/MS peak area” value ([3]; 10 μM, 120 min)?
Its value is 40%.

What about the half-life at 10 µM [4] of the same molecule?
Its half-life at 10 µM is 15 min.

What about the half-life at 1 µM ([5]; Sprague-Dawley, rat) of the same molecule?
The half-life at 1 µM was 26 min.

And the half-life at 10 µM ([5]; Sprague-Dawley, rat)?
The half-life at 10 µM was 11 min.

What about the microsomal CLint at 1 µM ([5]; Sprague-Dawley, rat) of the same molecule?
The microsomal CLint at 1 µM was 17.5 µL/min/mg.

And the microsomal CLint at 10 µM ([5]; Sprague-Dawley, rat)?
The microsomal CLint at 10 µM was 40.7 µL/min/mg.

What about the half-life at 10 µM ([5]; Syrian, hamster) of the same molecule?
Its half-life at 10 µM is 26 min.

And the microsomal CLint at 10 µM ([5]; Syrian, hamster)?
The microsomal CLint at 10 µM was 17.9 µL/min/mg.

And the “Relative LC/MS peak area” value ([5]; hamster liver S9, 10 μM)?
Its value is 24%.

And the “Relative LC/MS peak area” value ([5]; rat liver S9, 10 μM)?
Its value is 3%.

What about the “Percentage of the total peak area, Hepatocytes, Rat” value [6, 16] of the same molecule?
Its value is 12.7%.

What about the “Relative LC/MS peak area” value ([7]; 10 μM, 120 min) of the same molecule?
Its value is 12%.

What about the half-life at 10 µM [8] of the same molecule?
The half-life at 10 µM was 8.9 min.

And the “Percentage of the total peak area, Hepatocytes, Hamster” value [9, 16]?
Its value is 13.2%.

What about the “Percentage of the total peak area, Liver S9 with cofactors, Hamster” value [10, 17] of the same molecule?
The value was 18.1%.

And the “Percentage of the total peak area, Liver S9 with cofactors, Human” value [10, 17]?
The value was 2.1%.

And the “Percentage of the total peak area, Liver S9 with cofactors, Rat” value [10, 17]?
Its value is 2.0%.

What about the “Percentage of the total peak area, Liver S9 without cofactors, Hamster” value [10, 17] of the same molecule?
Its value is 98.4%.

What about the “Percentage of the total peak area, Liver S9 without cofactors, Human” value [10, 17] of the same molecule?
The value was 98.8%.

And the “Percentage of the total peak area, Liver S9 without cofactors, Rat” value [10, 17]?
Its value is 99.7%.

What about the “Number of metabolites detected” value [11] of the same molecule?
The value was 28.

What about the “Percentage of the total peak area, Hepatocytes, Human” value [11, 16] of the same molecule?
Its value is 12.5%.

What about the half-life at 1 µM [12] of the same molecule?
The half-life at 1 µM was 789 min.

And the half-life at 10 µM [12]?
The half-life at 10 µM was 17 min.

And the “Relative LC/MS peak area” value ([13]; 10 μM, 120 min)?
Its value is 11%.
